{"source": "patent US20090317464A1", "about": "“METHODS AND COMPOSITIONS FOR PRODUCING ANTI-ANDROGENIC EFFECTS” (PANACEA BIOTEC LTD., priority 2006, published 2009)", "origin": "cited, not measured here", "data": [{"smiles": "CC(O)(CS(=O)(=O)c1ccc(F)cc1)C(=O)Nc1ccc(C#N)c(C(F)(F)F)c1", "note": "(stereo not drawn) [Bicalutamide, 4-cyano-3-trifluoromethyl-N-(3-p-fluorophenylsulphony 1-2-hydroxy-2-methylpropionyl) aniline]", "values": [{"measurement": "steady state concentration (Css) versus dose", "setting": "daily administration to patients, above 300 mg, studied at 450 and 600 mg dose", "value": "no further increase in Css is observed"}, {"measurement": "half life", "setting": "in vivo", "value": "approximately 5.8 days"}, {"measurement": "time to peak plasma concentration", "setting": "in vivo", "value": "about 31 hours"}]}]}
